From patent publication US11649231B2, “Compound as mTOR inhibitor and use thereof” (MEDICINAL BIOCONVERGENCE RESEARCH CENTER, priority 2018, dated 2023)

Tests used:
RagD = RagD GTP hydrolysis inhibitory activity (GTP-agarose bead pulldown assay) in SW620 cells; assay type: cell-based; conditions: 10 μM for 1 hour, leucine restimulation 15 min
Experimental: GTP-agarose bead pulldown assay was performed to analyze RagD bound to GTP.
After washing the cells with cold PBS, cells were obtained in GTP-binding buffer (20 mM Tris-HCl, pH 7.5, 5 mM MgCl2, 2 mM PMSF, 20 μg/ml leupeptin, 10 μg/ml aprotinin, 150 mM NaCl, 1% Triton X-100, 1× phosphatase inhibitor cocktail). The cells were sonicated for 15 seconds to lyse, and the cell lysate was centrifuged at 4° C. for 10 minutes and at 13000×g to obtain a supernatant. The obtained protein solution (contained in 500 μl of GTP-binding buffer) was treated with 100 μl of GPT-agarose bead (Sigma Aldrich, Cat no. G9768) and left at 4° C. for 30 minutes. Thereafter, the beads were washed with GTP-binding buffer, and the supernatant was recovered. The washed beads in the recovered supernatant were once again treated for 30 minutes. The beads were washed again, and the recovered supernatant was left overnight at 4° C. After washing 5 times with GTP-binding buffer to separate contaminants that may have been included, the GTP-binding protein was analyzed by performing immunoblot analysis using anti-RagD or ARF1 antibody. ARF1 was used as a negative control.

LRS and RagD = LRS and RagD (Homo sapiens (Human), UniProt Q9P2J5); assay: Inhibition of the interaction of LRS and RagD (immunoprecipitation) in SW620 cells; assay type: cell-based; conditions: 10 uM for 1 hour, leucine restimulation, anti-LRS or anti-RagD precipitate
Sequence of LRS and RagD (Q9P2J5 whole entry): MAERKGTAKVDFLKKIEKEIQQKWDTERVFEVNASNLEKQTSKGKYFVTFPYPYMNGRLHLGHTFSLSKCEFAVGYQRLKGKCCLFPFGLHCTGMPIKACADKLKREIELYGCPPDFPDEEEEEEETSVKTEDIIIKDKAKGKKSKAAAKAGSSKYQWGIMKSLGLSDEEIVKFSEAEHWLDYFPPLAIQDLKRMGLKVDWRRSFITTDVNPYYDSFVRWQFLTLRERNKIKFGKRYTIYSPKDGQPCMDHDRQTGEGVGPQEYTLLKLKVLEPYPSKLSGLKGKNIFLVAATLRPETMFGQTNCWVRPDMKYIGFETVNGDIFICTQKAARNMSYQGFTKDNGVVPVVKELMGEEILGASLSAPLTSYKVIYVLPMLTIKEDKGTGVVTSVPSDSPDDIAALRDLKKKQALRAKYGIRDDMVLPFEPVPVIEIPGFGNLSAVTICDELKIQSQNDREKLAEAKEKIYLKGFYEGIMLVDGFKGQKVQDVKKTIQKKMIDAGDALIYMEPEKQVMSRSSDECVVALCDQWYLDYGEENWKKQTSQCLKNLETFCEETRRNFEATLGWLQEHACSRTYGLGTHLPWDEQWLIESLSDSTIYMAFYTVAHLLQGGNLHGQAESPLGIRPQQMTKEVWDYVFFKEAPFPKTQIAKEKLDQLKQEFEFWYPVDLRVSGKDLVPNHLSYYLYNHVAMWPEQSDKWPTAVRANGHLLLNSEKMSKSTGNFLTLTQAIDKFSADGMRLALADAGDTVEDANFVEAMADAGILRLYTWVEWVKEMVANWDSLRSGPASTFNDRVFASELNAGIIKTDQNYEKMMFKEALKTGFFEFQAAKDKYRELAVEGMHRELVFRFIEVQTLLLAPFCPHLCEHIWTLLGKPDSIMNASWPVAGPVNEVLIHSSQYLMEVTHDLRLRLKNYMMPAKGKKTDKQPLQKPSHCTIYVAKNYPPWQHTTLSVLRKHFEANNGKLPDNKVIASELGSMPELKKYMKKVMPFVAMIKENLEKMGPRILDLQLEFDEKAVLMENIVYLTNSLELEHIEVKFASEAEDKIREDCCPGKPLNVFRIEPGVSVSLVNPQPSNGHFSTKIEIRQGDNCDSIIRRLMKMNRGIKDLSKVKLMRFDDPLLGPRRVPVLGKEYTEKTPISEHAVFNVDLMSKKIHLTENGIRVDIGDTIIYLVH
Experimental: Cells were lysed using a lysis buffer containing a protease inhibitor, and a primary antibody was added to the cell lysate for immunoprecipitation, followed by stirring at 4° C. for 2 hours and allowed to stand. A 50% protein agarose G-Sepharose slurry was added and left for an additional 4 hours. After washing three times with cold lysis buffer, the precipitate was dissolved in SDS sample buffer, separated by SDS-PAGE, and immunoblotted using anti-LRS or anti-RagD antibody.

autophagy [1] = assay: Autophagy markers (LC3 II increase or p62 cleavage) in TSC2 CKO epilepsy animal model; assay type: in vivo, mouse; conditions: TSC2 CKO mice; rapamycin 3 mg/kg or Example 1-1K 10 mg/kg i.p.; 4 weeks
Experimental: (§1) Animal care was performed according to an animal protocol approved by the Animal Experiment Committee of Seoul National University. TSC2^GFAP1 CKO mice were generated as follows. TSC2^flox/flox mice were first crossed with the same GFAP-Cre mouse line. The resulting TSC2^flox/+; TSC2^flox/flox by crossing GFAP-Cre mice with other TSC2^flox/flox mice; GFAP-Cre mice were generated.
(§2) For western blot analysis, mouse cerebral neocortex and hippocampus were dissected and sonicated in cell lysis buffer (Cell Signaling, Beverly, Mass., USA). After centrifugation at 15,000 rpm at 4° C. for 1 hour. a supernatant was obtained and the protein concentration was measured by the Bradford method (Pierce, Rockford, Ill., USA). An equal amount of total protein extract was separated by SDS-PAGE and transferred to a nitrocellulose membrane. After incubation with anti-p-S6K (T389) (Cell Signaling, #9205), anti-S6K (Cell Signaling, #9202), anti-Actin (Santa Cruz Biotechnology, #sc-1616), anti-p-AKT (S473) (Cell signaling, #4060), anti-AKT (Cell signaling, #2920) anti-p62/SQSTM1 (Cell signaling, #39749) and anti-LC3A (Cell signaling, #4108) antibodies in 1% TTBBS buffer (10 mM Tris, 10% Tris (Tris-HCl, pH 7.5, 150 mM NaCl, 0.05% Tween 20), the membrane was reacted with a peroxidase-conjugated secondary antibody. Signals were detected using an improved chemiluminescent reagent (Pierce, Rockford, Ill., USA).

mTORC1 [2] = assay: mTORC1 activation (p-S6K T389) in TSC2 CKO epilepsy animal model; assay type: in vivo, mouse; conditions: TSC2 CKO mice; rapamycin 3 mg/kg or Example 1-1K 10 mg/kg i.p.; 4 weeks; vs control
Experimental: as §1
For western blot analysis, mouse cerebral neocortex and hippocampus were dissected and sonicated in cell lysis buffer (Cell Signaling, Beverly, Mass., USA). After centrifugation at 15,000 rpm at 4° C. for 1 hour. a supernatant was obtained and the protein concentration was measured by the Bradford method (Pierce, Rockford, Ill., USA). An equal amount of total protein extract was separated by SDS-PAGE and transferred to a nitrocellulose membrane.

mTORC2 [3] = target: T1, mTORC2 (Mus musculus (Mouse), UniProt Q9JLN9); assay: mTORC2 activation (p-AKT S473) in TSC2 CKO epilepsy animal model; assay type: in vivo; conditions: TSC2 CKO mice; rapamycin 3 mg/kg or Example 1-1K 10 mg/kg i.p.; 4 weeks
Experimental: as §1, §2

B6C3H/APP/PS1 mice = assay: Amyloid plaque removal in Alzheimer's animal model, ThS staining; assay type: in vivo, mouse; conditions: 5, 10 or 20 mg/kg intraperitoneal once daily for 7 days, vs vehicle
Excerpt: In the experiment, 7 months old male B6C3H/APP/PS1 mice were purchased from Jackson Lab (Bar Harbor, Me., USA) and used. These mouse are all dual transgenic mice expressing chimeric mouse/human amyloid precursor protein and mutant human presenilin 1, both of these are about CNS neurons. Both mutations are associated with early onset Alzheimer's.
The prepared salt (1-4K) of the compound of Example 1-1 was intraperitoneally administered at 0, 5, 10 or 20 mpk (mg/kg) per mouse, once daily for 7 days. As the solvent, 10% DMAC, 15% Tween 80, and 75% 0.1M Na2HPO4 buffer were used.
For immunohistochemical analysis, mice were anesthetized with 2% Avertin (20 μg g^−1, intraperitoneally), perfused with 0.9% saline, and perfused with ice-cold 4% paraformaldehyde. Excised brains of B6C3H/APP/PS1 mice were fixed in 4% paraformaldehyde (pH 7.4) for 16 hours. The fixed brain samples were immersed in 30% sucrose for cryoprotection and sliced to a thickness of 35 μm using a Cryostat (Microm HM 525, Thermo Scientific, Waltham, Mass., USA). To visualize Aβ plaques, sliced brain sections were stained with thioflavin S (ThS) for 7 minutes. […]
Images were taken with a Leica DM2500 fluorescence microscope. Plaque numbers were calculated from a single brain image of each mouse using the ImageJ software program.
Aβ deposition in the brain of APP/PS1 mice can be detected at 6 months of age. […]

autophagy [4] = assay: In vivo autophagy (LC3 II or p62 degradation) in brain of C57BL/6 mice; parameters: species or system mouse; conditions: 100 mg/kg intraperitoneal; 7-week-old C57BL/6 male mice
Experimental: (§3) The salt of the compound of the Example 1-1 was administered at a dose of 100 mg/kg (in 10% DMAC, 15% Tween 80, 75% 0.1M Na2HPO4, pH9.4), and rapamycin at a dose of 2 mg/kg (in 10% DMAC, 15% Tween 80, 75% saline).

mTORC1 [5] = assay: In vivo mTORC1 inhibition, S6K phosphorylation in brain neocortex and hippocampus of C57BL/6 mice; parameters: species or system mouse
Experimental: as §3
On the other hand, the present inventor attempted to evaluate the mTOR. inhibitory activity by salt concentration of the compound of Example 1-1 based on the above results.

mTORC2 [6] = target: T1, mTORC2; assay: In vivo mTORC2 activity, AKT phosphorylation in brain of C57BL/6 mice; conditions: 100 mg/kg intraperitoneal; 7-week-old C57BL/6 male mice
Experimental: as §3

mTORC1 [7] = assay: mTORC1 activity inhibitory effect at 20 μM, phospho-p70 S6 Kinase Western blot in SW620 cells; conditions: leucine-free 1 h 30 min, then leucine 15 min, vs DMSO control
Experimental: In order to evaluate the inhibitory effect of the compounds according to the present invention on the activity of mTORC1, an experiment was performed in the following manner.

O=C1NC(=S)S/C1=C\c1cnn(-c2ccccc2)c1 [Example 1-1, (5Z)-5-[(1-phenylpyrazol-4-yl)methylene]-2-thioxo-thiazolidin-4-one] was tested, and the “GTP hydrolysis of RagD” value (RagD) was “inhibiting the GTP hydrolysis of RagD” and the “interaction between LRS and RagD” value (LRS and RagD) was “directly inhibited”.
For CO[C@H]1C[C@@H]2CC[C@@H](C)[C@@](O)(O2)C(=O)C(=O)N2CCCC[C@H]2C(=O)O[C@H]([C@H](C)C[C@@H]2CC[C@@H](O)[C@H](OC)C2)CC(=O)[C@H](C)/C=C(\C)[C@@H](O)[C@@H](OC)C(=O)[C@H](C)C[C@H](C)/C=C/C=C/C=C/1C [rapamycin, reference compound], the “autophagy (LC3 II increase or p62 cleavage)” value (autophagy [1]) was “induced”, the “mTORC1 activation, p-S6K (T389) in cerebral cortex and hippocampus” value (mTORC1 [2]) was “reduced” and the “mTORC2 activation, p-AKT (S473)” value (mTORC2 [3]) was “not affected”.
For O=C1[N-]C(=S)S/C1=C\c1cnn(-c2ccccc2)c1.[K+] [Example 1-1K, Potassium Salt of (5Z)-5-[(1-phenylpyrazole-4-yl)methylene]-2-thioxo-thiazolidin-4-one], the “amyloid plaque deposits (ThS staining) in the brain” value (B6C3H/APP/PS1 mice) was “significantly reduced”, the “autophagy (LC3 II increase or p62 cleavage)” value (autophagy [1]) was “induced” and the “autophagy action (degradation of LC3 II or p62)” value (autophagy [4]) was “increased”. The “mTORC1 activation, p-S6K (T389) in cerebral cortex and hippocampus” value (mTORC1 [2]) was “reduced”, the “GTP hydrolysis of RagD” value (RagD) was “inhibiting the GTP hydrolysis of RagD” and the “phosphorylation of S6K in the brain, by dose” value (mTORC1 [5]; 0, 1, 2.5, 5, 10, 20 and 50 mg/kg intraperitoneal, C57BL/6 male mice) was “inhibited the phosphorylation of S6K in the brain of the animal in a concentration-dependent manner”. For the same molecule, the “phosphorylated S6K in brain neocortex and hippocampus” value (mTORC1 [5]; 100 mg/kg intraperitoneal, 7-week-old C57BL/6 male mice) was “not detected”, the “phosphorylation degree of AKT (mTORC2 activity)” value (mTORC2 [6]) was “not changed” and the “mTORC2 activation, p-AKT (S473)” value (mTORC2 [3]) was “not affected”. The “interaction between LRS and RagD” value (LRS and RagD) was “directly inhibited” and the “mTORC1 inhibitory effect (%)” value (mTORC1 [7]) was ≥ 85%.
For CC(C)c1ccc(-n2cc(/C=C3\SC(=O)NC3=O)cn2)cc1 [Example 1-47, (5Z)-5-[[1-(4-isopropylphenyl)pyrazol-4-yl]methylene]thiazolidine-2,4-dione], the “mTORC1 inhibitory effect (%)” value (mTORC1 [7]) was 74.36 ± 1.23%.
With CCN1C(=O)/C(=C/c2cnn(-c3ccc(C(C)C)cc3)c2)SC1=S [Example 1-25, (5Z)-3-ethyl-5-[[1-(4-isopropylphenyl)pyrazol-4-yl]methylene]-2-thioxo-thiazolidin-4-one] the “mTORC1 inhibitory effect (%)” value (mTORC1 [7]) was 36.86 ± 3.47%.
O=C1NC(=O)/C(=C/c2ccn(-c3ccccc3)n2)S1 [Example 1-58, (5Z)-5-[[1-phenylpyrazol-3-yl]methylene]thiazolidine-2,4-dione] was tested, and the “mTORC1 inhibitory effect (%)” value (mTORC1 [7]) was 59.51 ± 4.35%.
In the case of O=C1/C(=C/c2cnn(-c3ccccn3)c2)SC(=S)N1CCO [Example 1-34, (5Z)-3-(2-hydroxyethyl)-5-[[1-(2-pyridyl)pyrazol-4-yl]methylene]-2-thioxo-thiazolidin-4-one], the “mTORC1 inhibitory effect (%)” value (mTORC1 [7]) is reported as 82.94 ± 1.10%.
